One data set deals with T1, Neutrophil elastase (Homo sapiens, UniProt P08246).
T1 sequence (P08246 whole entry): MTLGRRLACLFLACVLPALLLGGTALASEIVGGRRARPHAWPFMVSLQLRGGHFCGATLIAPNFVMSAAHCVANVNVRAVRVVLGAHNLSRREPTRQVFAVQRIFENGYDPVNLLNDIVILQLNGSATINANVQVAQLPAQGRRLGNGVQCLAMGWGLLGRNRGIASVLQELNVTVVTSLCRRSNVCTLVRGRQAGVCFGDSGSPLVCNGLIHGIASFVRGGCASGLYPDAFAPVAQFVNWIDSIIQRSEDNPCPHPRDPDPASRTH
The data set is described as follows: Binding affinity for human leukocyte elastase.

Data set [1] can be described thus: Time of maximum concentration of compound in hamster plasma. Format: ADME, organism-based. Conditions: cricetinae.
Data set [2] is described as follows: Half-life of compound in plasma of rat. Format: ADME, organism-based.
In data set [3] the target is T2, Mast cell carboxypeptidase A (Homo sapiens, UniProt P15088).
T2 sequence (P15088 whole entry): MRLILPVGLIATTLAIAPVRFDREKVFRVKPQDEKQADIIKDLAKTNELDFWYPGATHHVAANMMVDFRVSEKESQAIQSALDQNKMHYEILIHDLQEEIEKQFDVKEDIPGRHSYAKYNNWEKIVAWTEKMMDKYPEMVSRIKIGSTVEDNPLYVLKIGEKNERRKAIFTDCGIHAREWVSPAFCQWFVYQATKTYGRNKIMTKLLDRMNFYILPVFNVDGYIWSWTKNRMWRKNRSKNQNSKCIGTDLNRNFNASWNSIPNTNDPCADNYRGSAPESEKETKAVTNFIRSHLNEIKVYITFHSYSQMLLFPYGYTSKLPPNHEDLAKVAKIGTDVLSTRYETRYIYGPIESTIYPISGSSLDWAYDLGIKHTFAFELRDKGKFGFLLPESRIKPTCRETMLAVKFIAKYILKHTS
As to the kind of experiment: Binding affinity for carboxypeptidase A; No inhibition at 188 uM (highest concentration tested).

Data set [4] in a line: Time of maximum concentration of compound in rat plasma. The format is ADME, organism-based.
Another data set deals with T3, Papain (Carica papaya, UniProt P00784).
T3 sequence (P00784 whole entry): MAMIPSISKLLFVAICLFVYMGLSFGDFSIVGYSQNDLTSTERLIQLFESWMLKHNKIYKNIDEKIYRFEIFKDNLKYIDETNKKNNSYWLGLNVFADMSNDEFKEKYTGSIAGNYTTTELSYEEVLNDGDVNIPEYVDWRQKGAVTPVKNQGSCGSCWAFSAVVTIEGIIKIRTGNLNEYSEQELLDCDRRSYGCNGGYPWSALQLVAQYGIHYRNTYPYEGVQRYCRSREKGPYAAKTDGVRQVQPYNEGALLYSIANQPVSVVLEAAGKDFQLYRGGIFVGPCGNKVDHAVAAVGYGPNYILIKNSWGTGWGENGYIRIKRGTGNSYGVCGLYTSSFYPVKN
As to the kind of experiment: Binding affinity for papaya papain; No inhibition at 188 uM (highest concentration tested).

Data set [5] is described as follows: Oral integrated area under the concentration vs time curve, for compound in hamster plasma. Format: ADME, organism-based. Conditions: cricetinae.
Data set [6] is described as follows: Maximum concentration of the unchanged compound in rat plasma, recorded in the period 0-6 hr post dose. Format: ADME, organism-based.
For data set [7], the target named is T4, Serine protease 1 (Homo sapiens, UniProt P07477). As to the kind of experiment: Binding affinity for human pancreatic trypsin.
T4 sequence (P07477 whole entry): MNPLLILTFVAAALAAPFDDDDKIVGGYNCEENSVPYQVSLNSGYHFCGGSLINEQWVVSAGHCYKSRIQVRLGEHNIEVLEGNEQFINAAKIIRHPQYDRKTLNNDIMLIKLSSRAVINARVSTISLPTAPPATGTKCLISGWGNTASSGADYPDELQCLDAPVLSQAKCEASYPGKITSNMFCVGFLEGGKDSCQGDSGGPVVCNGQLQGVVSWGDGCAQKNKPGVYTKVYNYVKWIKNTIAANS
In the next data set the target is T5, Cathepsin G (Homo sapiens, UniProt P08311).
T5 sequence (P08311 whole entry): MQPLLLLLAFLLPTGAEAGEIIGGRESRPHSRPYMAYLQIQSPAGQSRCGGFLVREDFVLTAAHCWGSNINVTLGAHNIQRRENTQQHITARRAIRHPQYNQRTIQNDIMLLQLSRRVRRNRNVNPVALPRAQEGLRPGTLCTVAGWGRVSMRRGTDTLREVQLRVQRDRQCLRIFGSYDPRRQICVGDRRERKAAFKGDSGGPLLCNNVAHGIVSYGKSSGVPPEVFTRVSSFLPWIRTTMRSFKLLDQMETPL
As to the kind of experiment: Binding affinity for human leukocyte cathepsin G; No inhibition at 188 uM (highest concentration tested).

A short description of data set [8]: Half-life of compound in plasma of dog. Format: ADME, organism-based, Canis lupus familiaris.
Data set [9] can be described thus: Ratio of intravenous to oral integrated area under the concentration vs time curve, for compound in dog plasma. Format: ADME, organism-based, Canis lupus familiaris.
The next data set deals with Procathepsin L (Bos taurus, UniProt P25975). As to the kind of experiment: Binding affinity for bovine spleen cathepsin L; No inhibition at 188 uM (highest concentration tested).
Chain of Procathepsin L (P25975 whole entry): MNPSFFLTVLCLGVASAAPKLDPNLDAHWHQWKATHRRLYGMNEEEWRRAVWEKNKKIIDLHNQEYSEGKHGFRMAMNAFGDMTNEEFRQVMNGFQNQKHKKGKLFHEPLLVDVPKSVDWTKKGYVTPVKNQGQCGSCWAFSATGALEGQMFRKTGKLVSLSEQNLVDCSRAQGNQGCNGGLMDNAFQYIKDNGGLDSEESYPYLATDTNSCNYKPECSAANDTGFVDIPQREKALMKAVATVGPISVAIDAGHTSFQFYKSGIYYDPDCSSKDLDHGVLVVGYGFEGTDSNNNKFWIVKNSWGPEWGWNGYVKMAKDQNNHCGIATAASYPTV
The next data set deals with Plasma kallikrein (Homo sapiens, UniProt P03952). The data set is described as follows: Binding affinity for human plasma kallikrein; No inhibition at 188 uM (highest concentration tested). Format: cell-free.
Chain of Plasma kallikrein (P03952 20-390 limits assumed): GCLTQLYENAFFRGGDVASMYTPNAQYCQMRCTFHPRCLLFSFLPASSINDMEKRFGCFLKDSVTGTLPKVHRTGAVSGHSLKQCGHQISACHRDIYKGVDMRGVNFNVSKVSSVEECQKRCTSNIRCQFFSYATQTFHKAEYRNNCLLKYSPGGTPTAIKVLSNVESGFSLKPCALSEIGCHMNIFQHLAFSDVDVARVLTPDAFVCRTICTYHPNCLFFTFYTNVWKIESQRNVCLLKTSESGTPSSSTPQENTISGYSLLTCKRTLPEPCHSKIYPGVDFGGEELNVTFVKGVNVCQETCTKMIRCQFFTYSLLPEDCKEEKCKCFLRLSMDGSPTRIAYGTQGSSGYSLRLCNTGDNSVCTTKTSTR
Chain of Plasma kallikrein (P03952 391-638 limits assumed): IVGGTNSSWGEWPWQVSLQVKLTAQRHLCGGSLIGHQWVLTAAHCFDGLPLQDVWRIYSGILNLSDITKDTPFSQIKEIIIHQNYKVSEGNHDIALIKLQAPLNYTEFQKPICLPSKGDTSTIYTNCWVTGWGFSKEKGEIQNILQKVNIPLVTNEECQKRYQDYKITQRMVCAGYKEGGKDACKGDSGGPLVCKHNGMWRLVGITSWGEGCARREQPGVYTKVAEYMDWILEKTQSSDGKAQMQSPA
The nature of data set [10]: Half-life of compound in plasma of hamster. Format: ADME, organism-based. Conditions: cricetinae.
Data set [11] deals with T4, Serine protease 1. As to the kind of experiment: Binding affinity for human pancreatic trypsin; […].
Data set [12] is described as follows: +Ratio of intravenous to oral integrated area under the concentration vs time curve, for compound in dog plasma. Format: ADME, organism-based, Canis lupus familiaris.
Another data set has as its target Acetylcholinesterase (Homo sapiens, UniProt P22303). As to the kind of experiment: Binding affinity for human erythrocyte Acetylcholinesterase; No inhibition at 188 uM (highest concentration tested).

From ChEMBL document CHEMBL1130170, “Orally active trifluoromethyl ketone inhibitors of human leukocyte elastase” (J Med Chem, 1997) come the findings set out here.

What is called Ki is the dissociation constant of the complex between target and ligand, obtained from inhibition or displacement. Read a low Ki as higher affinity. In general, Tmax refers to the time from dosing to the highest level. For orientation: half-life means how long it takes for the measured level to halve. A lower half-life goes with fast loss. What is called AUC is concentration integrated over time. The low end stands for low exposure, the high end for high exposure. One may read the Cmax as the peak of the concentration-time curve. As usually defined, the bioavailability is the share of a dose that reaches the circulation, judged against a reference dose that is usually intravenous.

SMILES strings stand for the structures. Where a SMILES comes first, the peptide text is derived from it. The star is where a group is joined. CF3 = FC(F)(F)*; Moc = COC(=O)*

Chain of Acetylcholinesterase (P22303 whole entry): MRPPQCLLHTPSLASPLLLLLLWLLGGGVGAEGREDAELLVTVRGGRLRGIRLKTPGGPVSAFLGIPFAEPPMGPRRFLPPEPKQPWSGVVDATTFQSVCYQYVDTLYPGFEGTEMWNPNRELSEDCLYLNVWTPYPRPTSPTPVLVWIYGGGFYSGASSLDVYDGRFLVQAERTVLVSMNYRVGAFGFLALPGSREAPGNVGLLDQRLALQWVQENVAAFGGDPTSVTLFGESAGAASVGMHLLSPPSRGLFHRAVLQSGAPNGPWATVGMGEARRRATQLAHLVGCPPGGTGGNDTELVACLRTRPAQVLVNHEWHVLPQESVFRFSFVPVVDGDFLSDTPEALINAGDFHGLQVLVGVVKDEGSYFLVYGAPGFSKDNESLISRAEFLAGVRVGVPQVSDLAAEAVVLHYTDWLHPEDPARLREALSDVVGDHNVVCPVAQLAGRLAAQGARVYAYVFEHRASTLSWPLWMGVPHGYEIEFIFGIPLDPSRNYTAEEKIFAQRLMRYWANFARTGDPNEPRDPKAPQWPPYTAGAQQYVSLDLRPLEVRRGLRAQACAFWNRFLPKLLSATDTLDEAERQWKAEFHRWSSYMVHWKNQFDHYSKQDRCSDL

`COC(=O)N[C@H](C(=O)N1CCC[C@H]1C(=O)N[C@H](C(=O)C(F)(F)F)C(C)C)C(C)C` (Moc-Val-Pro-Val-CF3): the inhibition constant (Ki) was 0.013 µM at Neutrophil elastase; “No inhibition” in data set [3]; “No inhibition” at Papain; 66.6 µM at Serine protease 1 [7]; “No inhibition” at Cathepsin G; “No inhibition” at Procathepsin L. At Plasma kallikrein, the inhibition constant Ki result was “No inhibition”. Also, the Tmax is 15 min in data set [1] and 30 min in data set [4]. Moreover, the half-life in data set [2] was 78 min; in [8], 48.6 min; in data set [10], 120 min. In [5], this molecule gave an AUC of 2160 ng·h/mL. In data set [6], this molecule showed a peak concentration (Cmax) of 3690 ng/mL. In addition, the bioavailability in data set [9] came to 70%.
On to `COc1ccc(C(=O)N[C@H](C(=O)N2CCC[C@H]2C(=O)N[C@H](C(=O)C(F)(F)F)C(C)C)C(C)C)cc1` (stereo in doubt; 1k), for which the results for the Tmax in [1] and in data set [4] were 30 min and 15 min, respectively. Moreover, the half-life is 49.2 min in data set [2], 120 min in data set [8] and 72 min in data set [10]. In addition, the Ki entry at Serine protease 1 [11], on Papain, on Acetylcholinesterase, at Procathepsin L and at Plasma kallikrein was “No inhibition” throughout. The same molecule yielded an AUC in data set [5] of 355 ng·h/mL. In data set [6], this molecule returned a Cmax of 972 ng/mL. In addition, the bioavailability in [12] came out at 39%.
